11 molecules from ChEMBL document CHEMBL1201862, “PubChem BioAssay data set” (2004) can be followed below.

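These data come from cells grown in 96-well plates and exposed to compound for 48 hours at five concentrations. GI50 marks 50% less growth.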 Activity calls are given as the source filed them. No stated cut-off is given here; in the data, active = GI50 up to about 1.1 µM and inactive = higher. Bounds are passed on as bounds.

Test systems include 786-0; BT-549; CAKI-1; CCRF-CEM; DLD-1; HCT-116; HL-60; HOP-92; K562; LOX IMVI; MDA-N; NCI-H522; OVCAR-8; PC-3; SF-268; SK-OV-3; SN12C; SNB-19; SR; UACC-257.
Common to all, as to assay: inhibition of tumour cell growth, NCI panel, 48 h

For the molecule `BrCC[N+]12CCCN1CCC2`, the GI50 in the experiment with 786-0 is 9.06 µM (inactive); with BT-549, 14.4 µM (inactive); in the experiment with CAKI-1, 1.03 µM (active); with CCRF-CEM, 1.59 µM (inactive); in the experiment on DLD-1, 4.38 µM (inactive); with HCT-116, 5.66 µM (inactive). The GI50 in the experiment with HL-60 is 2.9 µM (inactive); in the experiment with HOP-92, 5.22 µM (inactive); with K562 it was 2.9 µM (inactive); in the experiment on LOX IMVI it was 11.5 µM (inactive); in the experiment with MDA-N it was 16.1 µM (inactive); in the experiment on NCI-H522, 0.664 µM (active). Further, the GI50 with OVCAR-8 was 19 µM (inactive); in the experiment with PC-3, 17.1 µM (inactive); with SF-268 it was 24.9 µM (inactive); in the experiment with SK-OV-3, > 65.5 µM (inactive); with SN12C, 14.7 µM (inactive); in the experiment with SNB-19, > 43 µM (inactive). The GI50 with SR was 1.68 µM (inactive); with UACC-257, 18.7 µM (inactive).

In the case of `CC(=O)Nc1ccc(/C=c2\sc3nnc(-c4cccnc4)n3c2=O)cc1`, the GI50 in the experiment with 786-0 was 16.6 µM (inactive); in the experiment on CAKI-1, 17.9 µM (inactive); with CCRF-CEM, 17.4 µM (inactive); with DLD-1, 17.3 µM (inactive); in the experiment with HCT-116, 15.6 µM (inactive); in the experiment on HL-60 it was 16.4 µM (inactive). Moreover, the GI50 with HOP-92 is 12 µM (inactive); in the experiment on K562, 22.4 µM (inactive); with LOX IMVI it was 16.5 µM (inactive); with NCI-H522, 16.1 µM (inactive); with OVCAR-8 it was 17.6 µM (inactive); in the experiment on SF-268 it was 25.2 µM (inactive). Besides, the GI50 with SK-OV-3 was 24 µM (inactive); in the experiment on SN12C, 14.4 µM (inactive); in the experiment with SNB-19 it was 24.2 µM (inactive); in the experiment on SR, 17.3 µM (inactive); in the experiment with UACC-257, 21.8 µM (inactive).

As to `C/C(=N\NC(=N)N)C(CN(C)C)C(c1ccccc1)c1c(O)c2ccccc2oc1=O` (stereo not given), the GI50 with 786-0 was > 100 µM (inactive); with BT-549, 72.9 µM (inactive); in the experiment on CAKI-1, > 100 µM (inactive); in the experiment with CCRF-CEM, > 100 µM (inactive); in the experiment on DLD-1 it was > 100 µM (inactive); in the experiment with HCT-116 it was > 100 µM (inactive). The GI50 in the experiment with HL-60 is > 100 µM (inactive); in the experiment on HOP-92, 4.91 µM (inactive); in the experiment with K562, > 100 µM (inactive); in the experiment with LOX IMVI, > 100 µM (inactive); with MDA-N, > 100 µM (inactive); with NCI-H522, > 100 µM (inactive). For the same molecule, the GI50 in the experiment with OVCAR-8, in the experiment on PC-3, in the experiment with SF-268, in the experiment with SK-OV-3, in the experiment on SN12C and in the experiment on SNB-19 was > 100 µM (inactive) in each case. For the same molecule, the GI50 in the experiment on SR and with UACC-257 was > 100 µM (inactive) each time.

Consider `COC[C@H](C)/N=C/N1CCc2ccccc2C1(Cc1ccccc1)Cc1ccccc1`, for which the GI50 is 16.5 µM (inactive) with 786-0; 16.3 µM (inactive) in the experiment on CAKI-1; 12.9 µM (inactive) in the experiment with CCRF-CEM; 8.18 µM (inactive) with DLD-1; 10.8 µM (inactive) in the experiment on HCT-116; 6.17 µM (inactive) in the experiment with HL-60. Further, the GI50 with HOP-92 was 15.6 µM (inactive); in the experiment on K562, 6.97 µM (inactive); in the experiment on NCI-H522, 12.7 µM (inactive); with OVCAR-8, 15.1 µM (inactive); with SF-268, 21.9 µM (inactive); with SK-OV-3 it was 16.9 µM (inactive). In addition, the GI50 in the experiment on SN12C is 10.3 µM (inactive); in the experiment with SNB-19 it was 17.3 µM (inactive); in the experiment with SR, 11.6 µM (inactive); with UACC-257 it was 13.8 µM (inactive).

Take `Cc1ccc(NC(=O)C(=O)C2C(=O)NC(=O)NC2=O)cc1C`: the GI50 in the experiment with 786-0, in the experiment with CAKI-1, in the experiment on CCRF-CEM, in the experiment with DLD-1, with HCT-116 and in the experiment with HL-60 was > 100 µM (inactive) each time. Further, the GI50 with HOP-92, in the experiment with K562, in the experiment on LOX IMVI, in the experiment with NCI-H522, in the experiment on OVCAR-8 and in the experiment on SF-268 was > 100 µM (inactive) throughout. For the same molecule, the GI50 in the experiment with SK-OV-3, in the experiment with SN12C, with SNB-19, in the experiment with SR and in the experiment on UACC-257 was > 100 µM (inactive) throughout.

For `COc1ccc(C2=Nc3ccccc3NC(=O)C2)cc1`, the GI50 is 33.3 µM (inactive) with 786-0; > 100 µM (inactive) with CAKI-1; 41.9 µM (inactive) with CCRF-CEM; 62.8 µM (inactive) in the experiment with DLD-1; 20.5 µM (inactive) in the experiment with HCT-116; 21.8 µM (inactive) in the experiment with HL-60. For the same molecule, the GI50 was 21 µM (inactive) in the experiment with HOP-92; > 100 µM (inactive) in the experiment with K562; 18.3 µM (inactive) in the experiment with LOX IMVI; 38.9 µM (inactive) in the experiment with NCI-H522; 40.5 µM (inactive) with OVCAR-8; 23.4 µM (inactive) with SF-268. For the same molecule, the GI50 was 21.5 µM (inactive) in the experiment on SK-OV-3; 43.3 µM (inactive) with SN12C; 28.2 µM (inactive) in the experiment on SNB-19; > 100 µM (inactive) in the experiment with SR; > 100 µM (inactive) in the experiment with UACC-257.

As to `O=C(/C=C/c1c(O)ccc2ccccc12)c1ccccc1`, the GI50 in the experiment on 786-0 was 63.5 µM (inactive); with CAKI-1, > 100 µM (inactive); with CCRF-CEM, 35.6 µM (inactive); in the experiment on DLD-1, 85.7 µM (inactive); in the experiment with HCT-116, > 100 µM (inactive); with HL-60 it was 35.7 µM (inactive). The GI50 in the experiment with HOP-92 was > 100 µM (inactive); in the experiment with K562 it was 58.5 µM (inactive); in the experiment on LOX IMVI it was 19.3 µM (inactive); in the experiment with NCI-H522, > 100 µM (inactive); in the experiment with OVCAR-8, > 100 µM (inactive); with SF-268, > 100 µM (inactive). For the same molecule, the GI50 in the experiment on SK-OV-3, in the experiment on SN12C, in the experiment with SNB-19, with SR and in the experiment on UACC-257 was > 100 µM (inactive) each time.

For `COC(=O)c1onc(-c2c(OC)cc(OC)cc2OC)c1C(=O)OC`, the GI50 in the experiment on 786-0, in the experiment on CAKI-1, with CCRF-CEM, with DLD-1, with HCT-116 and in the experiment on HL-60 was > 100 µM (inactive) each time. Further, the GI50 in the experiment on HOP-92, with K562, with LOX IMVI, in the experiment on NCI-H522, in the experiment with OVCAR-8 and in the experiment with SF-268 was > 100 µM (inactive) each time. Also, the GI50 in the experiment with SK-OV-3, with SNB-19, in the experiment on SR and with UACC-257 was > 100 µM (inactive) throughout.

Regarding `Cc1cc2c(c(N)c1C)C(=O)c1ccccc1C2=O`, the GI50 is 20.2 µM (inactive) in the experiment with 786-0; 14.5 µM (inactive) in the experiment with CAKI-1; > 100 µM (inactive) in the experiment on CCRF-CEM; 62.7 µM (inactive) with DLD-1; 19 µM (inactive) in the experiment with HCT-116; > 100 µM (inactive) in the experiment on HL-60. In addition, the GI50 is 18 µM (inactive) in the experiment with HOP-92; > 100 µM (inactive) with K562; 17.7 µM (inactive) in the experiment on LOX IMVI; 21.7 µM (inactive) with NCI-H522; 20 µM (inactive) in the experiment on OVCAR-8; 25.5 µM (inactive) in the experiment with SF-268. For the same molecule, the GI50 in the experiment with SK-OV-3 was 17.5 µM (inactive); in the experiment on SN12C it was 49.1 µM (inactive); with SNB-19 it was 27.9 µM (inactive); with SR, > 100 µM (inactive); with UACC-257, 87.1 µM (inactive).

Turning to `C[N+]1(C)C/C(=C\c2ccncc2)C(=O)/C(=C/c2ccncc2)C1`, the GI50 was > 100 µM (inactive) with 786-0; > 100 µM (inactive) with CAKI-1; 37.1 µM (inactive) in the experiment with CCRF-CEM; > 100 µM (inactive) in the experiment with DLD-1; 38.5 µM (inactive) in the experiment on HCT-116; 24.8 µM (inactive) with HL-60. The GI50 with HOP-92 was > 100 µM (inactive); in the experiment on LOX IMVI it was > 100 µM (inactive); in the experiment with NCI-H522, 19.6 µM (inactive); in the experiment with OVCAR-8, > 100 µM (inactive); with SF-268, 25.2 µM (inactive); with SK-OV-3, > 100 µM (inactive). Besides, the GI50 in the experiment on SN12C, in the experiment with SNB-19, in the experiment on SR and with UACC-257 was > 100 µM (inactive) throughout.

As for `O=C(O)CCC(=O)N1C/C(=C\c2ccccc2)C(=O)/C(=C/c2ccccc2)C1`, the GI50 in the experiment on 786-0 was 2.52 µM (inactive); with CAKI-1 it was 4.71 µM (inactive); in the experiment on CCRF-CEM it was 1.03 µM (active); with DLD-1, 2.32 µM (inactive); in the experiment on HCT-116, 1.75 µM (inactive); in the experiment on HL-60, 2.21 µM (inactive). Besides, the GI50 in the experiment with HOP-92 was 16.3 µM (inactive); in the experiment on K562 it was 1.19 µM (inactive); in the experiment on LOX IMVI, 1.68 µM (inactive); in the experiment on NCI-H522, 1.07 µM (active); in the experiment with OVCAR-8, 3.09 µM (inactive); in the experiment on SF-268, 2.48 µM (inactive). The GI50 was 12.7 µM (inactive) in the experiment with SK-OV-3; 1.93 µM (inactive) in the experiment on SN12C; 3.16 µM (inactive) in the experiment on SNB-19; 0.59 µM (active) in the experiment on SR; 2.29 µM (inactive) with UACC-257.
